Data: patent publication US9695155B2, “Herbicidal substituted pyrimidinyloxy benzene compounds” (E. I. DU PONT DE NEMOURS AND COMPANY, priority 2013, dated 2017)

Columns and labels:
wheat = test: Test A postemergence; format: in vivo, Triticum aestivum
In short: (§1)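 Visual 0–100 rating (100 = complete control) taken about 10 d post-treatment relative to untreated checks. Preemergence: directed soil spray on sown loam/sand pots. Postemergence: seedlings 2–10 cm, 1–2 leaf. Non-phytotoxic solvent formulation with surfactant.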

barnyardgrass [1] = test: Test A postemergence; format: in vivo, Echinochloa crus-galli
In short: as §1

sedge, umbrella = test: Test B flooded paddy test; format: in vivo, Cyperus difformis; conditions: Flood, 250 g ai/ha; 0 to 100 scale where 0 is no effect and 100 is complete control
In short: (§2)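 Plants were grown to the 2-leaf stage, then pots were flooded to 3 cm above the soil and compounds were applied directly into the paddy water. That depth was held throughout, and after 13 to 15 days in the greenhouse injury was rated visually against controls on a 0–100 scale (0 no effect, 100 complete control).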

pigweed [2] = test: Test A preemergence; format: in vivo, Amaranthus retroflexus
In short: as §1

galium = test: Test A postemergence; format: in vivo, Galium aparine
In short: as §1

barnyardgrass [3] = test: Test A preemergence; format: in vivo, Echinochloa crus-galli
In short: as §1

corn = test: Test A postemergence; format: in vivo, Zea mays
In short: as §1

ragweed [4] = test: Test A preemergence; format: in vivo, Ambrosia elatior
In short: as §1

ragweed [5] = test: Test A postemergence; format: in vivo, Ambrosia elatior
In short: as §1

pigweed [6] = test: Test A postemergence; format: in vivo, Amaranthus retroflexus
In short: as §1

giant foxtail [7] = test: Test A postemergence; format: in vivo, Setaria faberii
In short: as §1

blackgrass = test: Test A postemergence; format: in vivo, Alopecurus myosuroides
In short: as §1

Italian ryegrass [8] = test: Test A postemergence; format: in vivo, Lolium multiflorum
In short: as §1

kochia [9] = test: Test A preemergence; format: in vivo, Kochia scoparia
In short: as §1

Italian ryegrass [10] = test: Test A preemergence; format: in vivo, Lolium multiflorum
In short: as §1

giant foxtail [11] = test: Test A preemergence; format: in vivo, Setaria faberii
In short: as §1

barnyardgrass [12] = test: Test B flooded paddy test; format: in vivo, Echinochloa crus-galli; conditions: Flood, 250 g ai/ha; 0 to 100 scale where 0 is no effect and 100 is complete control
In short: as §2

kochia [13] = test: Test A postemergence; format: in vivo, Kochia scoparia
In short: as §1

rice = test: Test B flooded paddy test; format: in vivo, Oryza sativa; conditions: Flood, 250 g ai/ha; 0 to 100 scale where 0 is no effect and 100 is complete control
In short: as §2

Heteranthera limosa = test: Test B flooded paddy test; format: in vivo; conditions: Flood, 250 g ai/ha; 0 to 100 scale where 0 is no effect and 100 is complete control
In short: as §2

[14] = 1000 g ai/ha, 0 to 100 scale, 0 no effect, 100 complete control
[15] = 1000 g ai/ha, 0 to 100 scale, 0 no effect, 100 complete control, approx. 10 days
[16] = 125 g ai/ha, 0 to 100 scale where 0 is no effect and 100 is complete control
[17] = 500 g ai/ha, 0 to 100 scale where 0 is no effect and 100 is complete control
[18] = 31 g ai/ha, 0 to 100 scale, 0 no effect, 100 complete control
[19] = 125 g ai/ha, 0 to 100 scale, 0 no effect, 100 complete control
[20] = 31 g ai/ha, 0 to 100 scale where 0 is no effect and 100 is complete control, visual, approximately 10 days

NS(=O)(=O)c1cnn(-c2ccccc2Oc2ncc(Cl)cn2)c1 [Compound 282]
Plant response rating, Wheat (wheat; [14]): 0
Plant response rating, Barnyardgrass (barnyardgrass [1]; [14]): 90
Plant response rating, Sedge, Umbrella (sedge, umbrella): 0
Pigweed plant response rating (pigweed [2]; [15]): 100
Plant response rating, Galium (galium; [14]): 30
Barnyardgrass plant response rating (barnyardgrass [3]; [15]): 90
Plant response rating, Corn (corn; [14]): 50
Ragweed plant response rating (ragweed [4]; [15]): 100
Plant response rating, Ragweed (ragweed [5]; [14]): 100
Plant response rating, Pigweed (pigweed [6]; [14]): 80
Plant response rating, Foxtail, Giant (giant foxtail [7]; [14]): 60
Plant response rating, Blackgrass (blackgrass; [14]): 100
Plant response rating, Ryegrass, Italian (Italian ryegrass [8]; [14]): 80
Kochia plant response rating (kochia [9]; [15]): 100
Ryegrass, Italian plant response rating (Italian ryegrass [10]; [15]): 50
Foxtail, Giant plant response rating (giant foxtail [11]; [15]): 100
Plant response rating, Barnyardgrass (barnyardgrass [12]): 0
Plant response rating, Kochia (kochia [13]; [14]): 90
Plant response rating, Rice (rice): 0
Plant response rating, Ducksalad (Heteranthera limosa): 0

CC(C)c1cnc(Oc2cccc(C#N)c2-n2cc(Br)cn2)nc1 [Compound 130]
Wheat plant response rating (wheat; [16]): 0
Plant response rating, Wheat (wheat; [17]): 0
Barnyardgrass plant response rating (barnyardgrass [1]; [16]): 0
Plant response rating, Barnyardgrass (barnyardgrass [1]; [17]): 0
Plant response rating, Sedge, Umbrella (sedge, umbrella): 0
Plant response rating, Pigweed (pigweed [2]; [16]): 0
Pigweed plant response rating (pigweed [2]; [17]): 0
Galium plant response rating (galium; [16]): 0
Plant response rating, Galium (galium; [17]): 0
Plant response rating, Barnyardgrass (barnyardgrass [3]; [16]): 0
Barnyardgrass plant response rating (barnyardgrass [3]; [17]): 0
Corn plant response rating (corn; [16]): 0
Plant response rating, Corn (corn; [17]): 0
Plant response rating, Ragweed (ragweed [4]; [16]): 0
Ragweed plant response rating (ragweed [4]; [17]): 0
Ragweed plant response rating (ragweed [5]; [16]): 0
Plant response rating, Ragweed (ragweed [5]; [17]): 0
Pigweed plant response rating (pigweed [6]; [16]): 0
Plant response rating, Pigweed (pigweed [6]; [17]): 0
Foxtail, Giant plant response rating (giant foxtail [7]; [16]): 0
Plant response rating, Foxtail, Giant (giant foxtail [7]; [17]): 0
Blackgrass plant response rating (blackgrass; [16]): 0
Plant response rating, Blackgrass (blackgrass; [17]): 0
Ryegrass, Italian plant response rating (Italian ryegrass [8]; [16]): 0
Plant response rating, Ryegrass, Italian (Italian ryegrass [8]; [17]): 0
Plant response rating, Kochia (kochia [9]; [16]): 0
Kochia plant response rating (kochia [9]; [17]): 0
Plant response rating, Ryegrass, Italian (Italian ryegrass [10]; [16]): 0
Ryegrass, Italian plant response rating (Italian ryegrass [10]; [17]): 0
Plant response rating, Foxtail, Giant (giant foxtail [11]; [16]): 0
Foxtail, Giant plant response rating (giant foxtail [11]; [17]): 0
Plant response rating, Barnyardgrass (barnyardgrass [12]): 0
Kochia plant response rating (kochia [13]; [16]): 0
Plant response rating, Kochia (kochia [13]; [17]): 0
Plant response rating, Rice (rice): 0
Plant response rating, Ducksalad (Heteranthera limosa): 0

CC(F)c1cccc(Oc2ncc(Cl)cn2)c1-n1cc(Br)cn1 (centres unmarked) [Compound 146]
Wheat plant response rating (wheat; [16]): 0
Plant response rating, Wheat (wheat; [17]): 0
Barnyardgrass plant response rating (barnyardgrass [1]; [16]): 10
Plant response rating, Barnyardgrass (barnyardgrass [1]; [17]): 60
Plant response rating, Sedge, Umbrella (sedge, umbrella): 40
Plant response rating, Pigweed (pigweed [2]; [16]): 60
Pigweed plant response rating (pigweed [2]; [17]): 100
Galium plant response rating (galium; [16]): 50
Plant response rating, Galium (galium; [17]): 100
Plant response rating, Barnyardgrass (barnyardgrass [3]; [16]): 20
Barnyardgrass plant response rating (barnyardgrass [3]; [17]): 90
Corn plant response rating (corn; [16]): 10
Plant response rating, Corn (corn; [17]): 30
Plant response rating, Ragweed (ragweed [4]; [16]): 0
Ragweed plant response rating (ragweed [4]; [17]): 100
Ragweed plant response rating (ragweed [5]; [16]): 10
Plant response rating, Ragweed (ragweed [5]; [17]): 10
Pigweed plant response rating (pigweed [6]; [16]): 100
Plant response rating, Pigweed (pigweed [6]; [17]): 100
Foxtail, Giant plant response rating (giant foxtail [7]; [16]): 20
Plant response rating, Foxtail, Giant (giant foxtail [7]; [17]): 80
Blackgrass plant response rating (blackgrass; [16]): 20
Plant response rating, Blackgrass (blackgrass; [17]): 70
Ryegrass, Italian plant response rating (Italian ryegrass [8]; [16]): 0
Plant response rating, Ryegrass, Italian (Italian ryegrass [8]; [17]): 40
Plant response rating, Kochia (kochia [9]; [16]): 40
Kochia plant response rating (kochia [9]; [17]): 100
Plant response rating, Ryegrass, Italian (Italian ryegrass [10]; [16]): 0
Ryegrass, Italian plant response rating (Italian ryegrass [10]; [17]): 50
Plant response rating, Foxtail, Giant (giant foxtail [11]; [16]): 70
Foxtail, Giant plant response rating (giant foxtail [11]; [17]): 100
Plant response rating, Barnyardgrass (barnyardgrass [12]): 20
Kochia plant response rating (kochia [13]; [16]): 70
Plant response rating, Kochia (kochia [13]; [17]): 100
Plant response rating, Rice (rice): 0
Plant response rating, Ducksalad (Heteranthera limosa): 40

O=Cc1cn(-c2ccccc2Oc2ncc(Cl)cn2)nn1 [Compound 272]
Plant response rating, Wheat (wheat; [18]): 0
Plant response rating, Wheat (wheat; [19]): 0
Plant response rating, Barnyardgrass (barnyardgrass [1]; [18]): 0
Plant response rating, Barnyardgrass (barnyardgrass [1]; [19]): 0
Plant response rating, Sedge, Umbrella (sedge, umbrella): 0
Plant response rating, Pigweed (pigweed [2]; [20]): 0
Pigweed plant response rating (0 to 100 scale) (pigweed [2]; 125 g ai/ha): 0
Plant response rating, Galium (galium; [18]): 0
Plant response rating, Galium (galium; [19]): 0
Plant response rating, Barnyardgrass (barnyardgrass [3]; [20]): 0
Barnyardgrass plant response rating (0 to 100 scale, 0 is no effect, 100 is complete control) (barnyardgrass [3]; 125 g ai/ha): 0
Plant response rating, Corn (corn; [18]): 0
Plant response rating, Corn (corn; [19]): 0
Plant response rating, Ragweed (ragweed [4]; [20]): 0
Ragweed plant response rating (0 to 100 scale) (ragweed [4]; 125 g ai/ha): 0
Plant response rating, Ragweed (ragweed [5]; [18]): 0
Plant response rating, Ragweed (ragweed [5]; [19]): 0
Plant response rating, Pigweed (pigweed [6]; [18]): 0
Plant response rating, Pigweed (pigweed [6]; [19]): 0
Plant response rating, Foxtail, Giant (giant foxtail [7]; [18]): 0
Plant response rating, Foxtail, Giant (giant foxtail [7]; [19]): 0
Plant response rating, Blackgrass (blackgrass; [18]): 0
Plant response rating, Blackgrass (blackgrass; [19]): 0
Plant response rating, Ryegrass, Italian (Italian ryegrass [8]; [18]): 0
Plant response rating, Ryegrass, Italian (Italian ryegrass [8]; [19]): 0
Plant response rating, Kochia (kochia [9]; [20]): 0
Kochia plant response rating (0 to 100 scale) (kochia [9]; 125 g ai/ha): 0
Plant response rating, Ryegrass, Italian (Italian ryegrass [10]; [20]): 0
Ryegrass, Italian plant response rating (0 to 100 scale) (Italian ryegrass [10]; 125 g ai/ha): 0
Plant response rating, Foxtail, Giant (giant foxtail [11]; [20]): 0
Foxtail, Giant plant response rating (0 to 100 scale) (giant foxtail [11]; 125 g ai/ha): 0
Plant response rating, Barnyardgrass (barnyardgrass [12]): 0
Plant response rating, Kochia (kochia [13]; [18]): 0
Plant response rating, Kochia (kochia [13]; [19]): 0
Plant response rating, Rice (rice): 0
Plant response rating, Ducksalad (Heteranthera limosa): 0
